From US20160193325A1 (priority 2002, published 2016)

Tested on: HCVpp
Settings: 25 μM AZT before and during infection; Huh-7
Method: HCVpp were treated with 25 μM AZT (3′-azido-3′-deoxythymidine; Sigma-Aldrich, France) before and during infection of target cells (lane j).

SMILES: Cc1cn([C@H]2C[C@H](N=[N+]=[N-])[C@@H](CO)O2)c(=O)[nH]c1=O [AZT, 3′-azido-3′-deoxythymidine]
- effect on transduction: inhibited transduction
